The experiment concerns Plasmodium falciparum. The experiment in a line: GSK_TCMDC: Inhibition of Plasmodium falciparum 3D7 in whole erythrocytes, using parasite LDH activity as an index of growth. The format is functional, organism-based. The note with it: Plasmodium falciparum, 3D7.
`Nc1cc(/C=C/c2ccc([N+](=O)[O-])s2)nc2ccccc12` registered an XC50 of 760 nM.

`CCN(CC)CCN(Cc1ccc(-c2ccc(C(F)(F)F)cc2)cc1)C(=O)Cn1c(CCc2ccccc2F)nc(=O)c2ccccc21` had an XC50 of 934 nM.

For the compound `Oc1ccc(Nc2ccnc3cc(Cl)ccc23)cc1`, the XC50 was determined as 744 nM.

As for `Cc1ccc(CN2CCN(c3cc4c(cc3Cl)CCN4C(=O)Cc3ccc(Cl)c(NC(=O)Nc4cccc(C#N)c4)c3)CC2)cc1`, the XC50 was determined as 1130 nM.

`CNc1c2c(nc3ccc(NC(=O)CCCCCCc4ccccc4)cc13)CCCC2`: the XC50 turned out to be 915 nM.

Compound `COc1ccc(Cl)cc1NC(=O)C(C)N1CCN(S(=O)(=O)c2ccccc2F)CC1` (configuration not stated) gave an XC50 of 672 nM.

The compound `Oc1cccc(C2CCCN(CCc3c[nH]c4ccccc34)C2)c1` (configuration not stated) returned an XC50 of 857 nM.

In the case of `COc1ccc(NC(=O)c2ccc(Br)c(C)c2)cc1N1CCN(Cc2ccccc2)CC1`, the XC50 amounted to 918 nM.

`Cc1cccnc1Nc1nc(-c2ccccn2)cs1` displayed an XC50 of 687 nM.

`Fc1ccc2ncc(Cl)c(CCN3CCC(NCc4cc5c(cn4)OCCO5)CC3)c2c1` yielded an XC50 of 884 nM.

Take `COc1ccc(N2CCN(CCCCNC(=O)c3ccc(NC(=O)c4ccc(C(F)(F)F)cc4)cc3)CC2)c(OC)c1`: the XC50 came out at 593 nM.

On to `COc1cc(CNC2Cc3ccccc3C2)ccc1Oc1ccc2nc[nH]c2c1`, for which the XC50 worked out at 949 nM.

Consider `CC1CN(c2cccc3c2nc(-c2cncc(C#N)c2)n3CCNCc2ccccc2)CC(C)O1` (configuration not stated), for which the XC50 is 1220 nM.

In the case of `CCc1ccc(CN2CCC(C(=O)Nc3ccc(-c4nc5ccccc5[nH]4)cc3)CC2)o1`, the XC50 amounted to 610 nM.

With `CCNc1cc(C(=O)N[C@@H](Cc2cccc(F)c2)[C@H](O)CNC(C)CCCC(C)C)cc(N2CCCCS2(=O)=O)c1` (some centres not stated), the XC50 came out at 596 nM.

`Cc1cc(-c2cc(Cl)ccc2Cl)no1` gave an XC50 of 168 nM.

In turn, `Oc1ccc(CCCNc2nc(NCc3cccc4ccccc34)nc(N3CCNCC3)n2)cc1` displayed an XC50 of 808 nM.

The compound `C=CCNC(=O)CCCNC(=N)N` returned an XC50 of 717 nM.

With `COc1cccc(-c2cc(C(=O)NC3CCC(N4CCC(c5ccccc5C)CC4)CC3)[nH]n2)c1` (configuration not stated), the XC50 amounted to 1120 nM.

As to `COc1ccc(-c2ccc(NC(=O)c3ccc(C#N)cc3)cc2)cc1CN1CCCC1`, the XC50 was 873 nM.

In turn, `O=C(/C=C/c1ccc(Cl)c(Cl)c1)NC1CCN(Cc2ccc(O)cc2)CC1` gave an XC50 of 691 nM.

`O=C(/C=C/c1ccccc1Cl)NC1CCC(CN2C3CCC2CC(c2c[nH]c4ccccc24)C3)CC1` (configuration not stated): the XC50 is 706 nM.

As to `CC(C)CNCc1cccc(-c2cccc(CNC3CCN(Cc4ccccc4)CC3)c2)c1`, the XC50 worked out at 183 nM.

`CN(C)c1ccc2c(c1)Sc1cc(N(C)C)ccc1N2C(=O)c1cccc(C(=O)O)c1` registered an XC50 of 184 nM.

For the compound `O=S(=O)(c1cc(Cl)ccc1Cl)N1CCCCC(c2ccc(C(F)(F)F)cc2)=N1`, the XC50 came to 998 nM.

`CNC(=O)c1cncc(/C=C/c2ccccc2S(N)(=O)=O)c1` displayed an XC50 of 694 nM.

For the compound `COc1ccc(N2CCN(CCCC/C=C/c3ccc(NC(=O)c4cc(Cl)cc(Cl)c4)cc3)CC2)c(OC)c1`, the XC50 was determined as 660 nM.

As to `O=C(NC1CC1)c1cnc(N2CCC(Cc3ccccc3)CC2)c(Cl)c1`, the XC50 was 672 nM.

For `CCN1CCN(CCCCNc2c3ccccc3nc3ccccc23)CC1`, the XC50 worked out at 860 nM.

`CC(=O)Nc1ccc(C(=O)Nc2cccc(-c3cccc(-c4nc5cccc(C)c5[nH]4)c3)c2)cn1` came in with an XC50 of 64.7 nM.

`CC=CC1CCNC(C(O)c2ccnc3ccc(OC)cc23)C1` (configuration not stated): the XC50 was found to be 1090 nM.

Regarding `O=c1cc(NCCCCNCc2cccc(C(F)(F)F)c2)[nH]c2ccccc12`, the XC50 came out at 789 nM.

Consider `CCCCCCCCN1CCN(CCCCCCNc2c3ccccc3nc3ccccc23)CC1`, for which the XC50 is 162 nM.

In the case of `Cc1ccc2[nH]c(NC#N)nc2c1`, the XC50 turned out to be 1150 nM.

As to `CN1CCC(c2c[nH]c3ccc(NC(=O)Nc4ccc(-c5ccncc5)cc4Cl)cc23)CC1`, the XC50 worked out at 836 nM.

Consider `CN1CCCC(CN2CCN(Cc3cccc(-c4ccc(-c5nc6ccccc6[nH]5)s4)c3)CC2)C1` (configuration not stated), for which the XC50 was found to be 149 nM.

Compound `Cc1ccc(CNC(=O)[C@H](Cc2ccccc2)Nc2cc(C)nc(Nc3ccccc3)n2)cc1` displayed an XC50 of 853 nM.

Consider `c1ccc(CN2CCC(NCc3ccccc3-c3cccc(CNC4CCCC4)c3)CC2)cc1`, for which the XC50 came out at 718 nM.

With `CC(C)CC(=O)NC1CCN(Cc2c(-c3cccs3)nc3ccccc3c2C(=O)N[C@@H](C)C2CCCCC2)CC1`, the XC50 worked out at 819 nM.

Take `Cc1ccc(NC(=O)c2ccc(CN3CCCN(CCC(C)C)CC3)cc2)cc1F`: the XC50 turned out to be 609 nM.

Consider `Cc1cccc2nc(-c3ccc(-c4ccc(CN5CCN(CC6CCCN(C)C6)CC5)cc4)s3)[nH]c12` (configuration not stated), for which the XC50 is 142 nM.

In turn, `C=C[C@H]1CN(CCCCCCC)CC[C@H]1CCN(C)c1ccnc2ccc(OC)cc12` registered an XC50 of 446 nM.

`Oc1ccc2[nH]c(-c3cccc(F)c3)nc2c1CN1CCC(O)(c2ccccc2)CC1` returned an XC50 of 994 nM.

For the compound `Cc1nc(C)c(-c2cccc(Oc3ccc(Cl)cc3)c2)c(O)c1Br`, the XC50 amounted to 73.6 nM.

In turn, `Cc1cc(N2C(N)=NC(N)=NC2(C)C)ccc1Cl` registered an XC50 of 20.9 nM.

With `O=C(c1ccc([N+](=O)[O-])o1)N1CCC(c2cn(Cc3cccc(F)c3)c3ccccc23)CC1`, the XC50 worked out at 637 nM.

`CCCCN(Cc1cc(Cl)c(OCC)c(OC)c1)c1ccc(C(O)(C(F)(F)F)C(F)(F)F)cc1` showed an XC50 of 915 nM.

With `CCC(C)OC(=O)C1=C(C)NC2=C(C(=O)CC(c3ccc(OC)c(OC)c3)C2)C1c1ccc(O)cc1` (configuration not stated), the XC50 came to 218 nM.

`CCN1C(=O)C(CC(=O)Nc2cccc(Cl)c2)N(Cc2ccc(OC)c(OC)c2)C1=S` (configuration not stated) came in with an XC50 of 607 nM.

`CC(Nc1nc(Nc2ccc(F)cc2)nc(SCC(N)=O)n1)c1ccccc1` (configuration not stated) showed an XC50 of 496 nM.

As for `Cc1c(CC(=O)NCCC2CCN(CCCCCNC(=O)/C=C/c3ccc(Cl)c(Cl)c3)CC2)sc2ccc(Cl)cc12`, the XC50 amounted to 880 nM.

In the case of `O=C(Nc1ccc(F)c(F)c1)c1ccc(CN2CCCN(Cc3cccc(O)c3)CC2)cc1`, the XC50 is 836 nM.

With `CC(C)CCN1CCC(Oc2ccc(NC(=O)c3ccc4ncccc4c3)cc2Cl)C1` (configuration not stated), the XC50 turned out to be 974 nM.

As for `CC1(C)NC(N)=NC(=N)N1OCCCOc1cc(Cl)ccc1Cl`, the XC50 worked out at 3.2 nM.

For the compound `CN1C(C)(C)CC(NC(=O)c2ccc(-c3cc4cc(Cl)c(Cl)cc4[nH]3)o2)CC1(C)C`, the XC50 came to 1120 nM.

Compound `COc1ccc2nccc(N3CCC(CCNCc4ccc5c(n4)NC(=O)CS5)CC3)c2c1` gave an XC50 of 209 nM.

`CCN(CC)CCCN(C(=O)Nc1c(Cl)cncc1Cl)c1nc(-c2ccc(F)cc2)cs1` came in with an XC50 of 241 nM.

Compound `CCCCCCN1CCC(NCc2ccc(C)cc2)CC1` displayed an XC50 of 860 nM.

`CC(C)NC(C)(C)CN(Cc1ccc(-c2ccc(C(F)(F)F)cc2)cc1)C(=O)Cn1c(CCc2cccc(F)c2F)nc(=O)c2ccccc21` gave an XC50 of 908 nM.

`CC(Cc1ccc(NC(=O)CCCc2ccccc2)cc1)NCCc1cccc(Cl)c1` (configuration not stated) displayed an XC50 of 945 nM.

Compound `N#Cc1ccc(-c2ccc(C(=O)NCC3CCN(CCN4CCC(c5ccc6c(c5OCC(N)=O)CCCC6)CC4)CC3)cc2)cc1` had an XC50 of 443 nM.

For the compound `CC(Cc1ccc(NC(=O)c2ccc(NCCc3ccccc3)cc2)cc1)NCCc1cccc(Cl)c1` (configuration not stated), the XC50 worked out at 854 nM.

The compound `CC(=O)Nc1ccc(C(=O)Nc2cccc(-c3csc(-c4nc5ccccc5[nH]4)c3)c2)cn1` showed an XC50 of 119 nM.

As to `CS(=O)(=O)Nc1ccc2[nH]cc(C3CCN(CC(O)C4CCN(C(=O)/C=C/c5ccc(Cl)c(Cl)c5)CC4)CC3)c2c1` (configuration not stated), the XC50 came to 1760 nM.

In turn, `Cc1ncccc1C(=O)Nc1ccc(-c2cccc(-c3nc4cccc(C)c4[nH]3)c2)cc1` registered an XC50 of 733 nM.

Take `O=C1C2C3SC(c4c3ccc3ccccc43)C2C(=O)N1c1ccccc1` (configuration not stated): the XC50 was 770 nM.

Consider `O=C(COc1ccccc1)Nn1cnc2ccccc21`, for which the XC50 is 1050 nM.

On to `CC(C)Sc1nncc(-c2cnnc(SC(C)C)n2)n1`, for which the XC50 was 141 nM.

`O=C(COc1cnc2ccccc2n1)Nc1ccccc1Sc1ccc(Cl)cc1` yielded an XC50 of 728 nM.

`CCOc1cc(C(=O)NC2CC(C)(C)NC(C)(C)C2)ccc1-c1cc2cc(Cl)c(Cl)cc2[nH]1`: the XC50 came out at 770 nM.

With `CCCCOC(=O)NCCCC[C@H](NC(=O)OC(C)(C)C)C(=O)N[C@H](C(=O)OC(c1ccccc1)c1ccccc1)[C@H]1O[C@@H](n2ccc(=O)[nH]c2=O)[C@@H]2OC(C)(C)O[C@@H]21`, the XC50 amounted to 1090 nM.

Compound `c1ccc2[nH]c(-c3ccc(-c4ccc(CN5CCC(N6CCCCC6)CC5)cc4)s3)nc2c1` came in with an XC50 of 153 nM.

`Cc1cccc(Cn2ccc3c4c(N)nc(N)nc4ccc32)c1` registered an XC50 of 7.35 nM.

For the compound `CCCCc1ccc2[nH]cc(C3=CCN(C)CC3)c2c1Br`, the XC50 is 627 nM.

Take `Cc1ccc(O)cc1Nc1ccnc2ccc(-c3cccc(CN(C)C)c3)cc12`: the XC50 is 515 nM.

As to `Cc1nc(Nc2cc(Cl)ccc2O)nc(Nc2cc(Cl)ccc2O)c1[N+](=O)[O-]`, the XC50 is 29.4 nM.

In turn, `Cc1cccc2nc(-c3ccc(-c4ccc(NC(=O)Nc5ccc(Cl)cc5)cc4)cc3)[nH]c12` returned an XC50 of 100 nM.

For the compound `COC(=O)c1cccc(OCCNC2CCN(C[C@H](O)c3ccnc4ccc(OC)cc34)CC2)c1`, the XC50 was determined as 342 nM.

Regarding `CC(=O)Nc1cc(C(=O)Nc2cccc(-c3csc(-c4nc5ccccc5[nH]4)c3)c2)ccc1C`, the XC50 was determined as 465 nM.

With `CC(C)CNCc1cccc(-c2ccccc2CN(C(=O)Nc2ccccc2)C2CCN(Cc3ccccc3)CC2)c1`, the XC50 came to 642 nM.

In turn, `O=S(=O)(NCCN1CCCC1)c1ccc(-c2cccc(CNC3Cc4ccccc4C3)c2)cc1` yielded an XC50 of 618 nM.

`O=S(=O)(c1cc(Cl)sc1Cl)N(CCC(O)(C(F)(F)F)C(F)(F)F)Cc1cccc(O)c1` showed an XC50 of 744 nM.

Regarding `COc1ccc2nccc([C@@H](O)CN3CCC(NC(=O)/C=C/c4ccc5[nH]c(=O)ccc5c4)CC3)c2c1`, the XC50 turned out to be 967 nM.

Consider `COc1ccc(NC(=O)/C=C/c2cc(Br)ccc2F)cc1OCCN(C(C)C)C(C)C`, for which the XC50 turned out to be 757 nM.

With `CN(C)c1ccc(-c2ccc(C(=O)NC3CCN(Cc4ccccc4)CC3)s2)cc1`, the XC50 came to 1050 nM.

`Nc1ncc(-c2ccccc2)cc1-c1nc2cc(Cl)c(F)cc2[nH]1`: the XC50 came out at 263 nM.

In turn, `Cc1cc(N2CCCC2)nc(Nc2ccc(NC(=O)C(C)C)cc2)n1` showed an XC50 of 1100 nM.

Source of the values: ChEMBL document CHEMBL1157539, “Thousands of chemical starting points for antimalarial lead identification” (Nature, 2010).
